Assay: Solubilization of pigment from Lucantin Pink CWD into oil with water and surfactant; absorbance of filtered oil-phase
Conditions: type A, mix 3 g, surfactant 2 g, Tobis fish-oil 35 g; for Absorbance at 474 nm after 1.5 days in refrigerator and filtration: 0.200 ml diluted to 10 ml

| Substance | % recov. after 1.5 days in refrigerator and filtration | Absorbance at 474 nm after 1.5 days in refrigerator and filtration |
| --- | --- | --- |
| Sorbitan monostearate | (30.7) % | 0.174 |
| sorbitan monooleate [Sorbitan ester monooleate] | (27.4) % | 0.157 |

From patent US20080044538A1, “Method For Pigment Solubilization, A pigment Composition And Its Use” (AKZO NOBEL N.V., priority 2004, published 2008)
